Experimental data taken from patent US20150238490A1 (Pharmacyclics, Inc., priority 2014, published 2015).
“Also recorded” adds a separate entry of the source.

Columns and labels:
[1] = tested on: CLL patients; conditions: plasma, previous studies; cited from earlier work
[2] = tested on: DLBCL patients; experiment: Serum CCL3 and CCL4 pre- and post-treatment in patients with DLBCL; format: in vivo, human; conditions: in most patients
From the text: The study included 102 patients from MD Anderson Cancer Center (MDACC) with newly diagnosed DLBCL between January 2009 and February 2011 (MDA test cohort). In addition, a second set of 51 patients from MDACC with newly diagnosed DLBCL was included for validation analysis (MDA validation cohort). Nineteen patients with newly diagnosed DLBCL from the University of Nebraska were also included in the correlation analysis between serum CCL3/CCL4 levels and GCB vs. non-GCB subtype (Nebraska cohort). […] Demographics and other clinical parameters for both MDACC test and validation cohort were obtained at the time of initial referral to MDACC. DLBCL diagnosis was established by institutional pathologists according to the WHO classification. Immunophenotypic classification (GCB vs. non-GCB subtype) of DLBCL was determined by Hans criteria. […]
Peripheral blood serum samples were obtained from the tissue bank of the Department of Lymphoma and Myeloma at MDACC or from the University of Nebraska Medical Center. […] Serum and cell culture supernatant CCL3 and CCL4 levels were quantified by ELISA using Quantikine Kits (R&D Systems) and was conducted at MDACC (Sivina M, Hartmann E, Kipps T J, et al. “CCL3 (MIP-1alpha) plasma levels and the risk for disease progression in chronic lymphocytic leukemia.” Blood. 2011; 117(5):1662-1669.). […]

[3] = tested on: OCI-Ly19 cell line (GCB subtype DLBCL); experiment: CCL3/CCL4 secretion by DLBCL cell line, supernatant ELISA; format: cell-based, human; conditions: 1 μM ibrutinib, supernatant after 24 h
Protocol: (§1) For BCR stimulation, culture medium was supplemented with 10 μg/mL anti-IgM (polyclonal goat F(ab′)2 fragments to human IgM, MP Biomedicals) for the indicated time periods.
(§2) All DLBCL cell lines were grown in RPMI 1640 medium (Hyclone) supplemented with glutamine, beta-mercaptoethanol, penicillin/streptomycin and 10% fetal bovine serum, except for OCI-Ly3 and OCI-Ly10, which were maintained in Iscove's modified Dulbecco's medium (Gibco) supplemented with beta-mercaptoethanol, penicillin/streptomycin and 20% heparinized human plasma. All cell lines were grown in a humidified 5% CO2 incubator at 37° C. DLBCL cell lines included TMD8, HBL-1, OCI-Ly10, OCI-Ly3, DB and OCI-Ly19.
(§3) Cell culture supernatant samples from DLBCL cell lines were used after 24 h for the measurement of CCL3 and CCL4 levels for quantification by ELISA using Quantikine Kits (R&D Systems). The absorbance was recorded by a microplate reader (ELx808, Bio-Tek Instruments), and data collection and analysis were performed using Gen5 software Version 1.08 (Bio-Tek Instruments).
(§4) Peripheral blood serum samples were obtained from the tissue bank of the Department of Lymphoma and Myeloma at MDACC or from the University of Nebraska Medical Center. All serum samples were aliquoted and stored at the time of initial referral to each institution. Serum and cell culture supernatant CCL3 and CCL4 levels were quantified by ELISA using Quantikine Kits (R&D Systems) and was conducted at MDACC (Sivina M, Hartmann E, Kipps T J, et al. “CCL3 (MIP-1alpha) plasma levels and the risk for disease progression in chronic lymphocytic leukemia.” Blood. 2011; 117(5):1662-1669.). The absorbance was recorded on a microplate reader (ELx808, Bio-Tek Instruments), and data collection and analysis were performed using Gen5 software Version 1.08 (Bio-Tek Instruments).

[4] = tested on: DB cell line (GCB subtype DLBCL); experiment: as above; format: cell-based, human; conditions: 1 μM ibrutinib, supernatant after 24 h
Protocol: as §1, §2, §3, §4

[5] = tested on: HBL-1 cell line (ABC subtype DLBCL); experiment: as above; format: cell-based, human; conditions: for mean supernatant concentration of CCL3: 24 h
Protocol: as §1, §2, §3, §4

[6] = tested on: OCI-Ly10 cell line (ABC subtype DLBCL); experiment: as above; format: cell-based, human; conditions: 1 μM ibrutinib, supernatant after 24 h
Protocol: as §1, §2, §3, §4

[7] = tested on: OCI-Ly3 cell line (ABC subtype DLBCL, CARD11 mutation); experiment: as above; format: cell-based, human; conditions: 1 μM ibrutinib, supernatant after 24 h
Protocol: as §1, §2, §3, §4

[8] = tested on: TMD8 cell line (ABC subtype DLBCL); experiment: as above; format: cell-based, human
Protocol: as §1, §2, §3, §4

[9] = 1 μM ibrutinib, alone or with 10 μg/mL anti-IgM, supernatant after 24 h
[10] = ibrutinib titration (3.1-1000 nM) in combination with 10 μg αIgM

CC[C@H](Nc1ncnc2[nH]cnc12)c1nc2cccc(F)c2c(=O)n1-c1ccccc1 [GS-1101/CAL-101/idelalisib]
elevated CCL3 and CCL4 levels after pharmacologic inhibition of BCR signaling [1]: rapidly normalize

C=CC(=O)N1CCC[C@@H](n2nc(-c3ccc(Oc4ccccc4)cc3)c3c(N)ncnc32)C1 [ibrutinib, 1-((R)-3-(4-amino-3-(4-phenoxyphenyl)-1H-pyrazolo[3,4-d]pyrimidin-1-yl)piperidin-1-yl)prop-2-en-1-one]
high concentrations of serum CCL3 and CCL4 after therapy [2]: returned to low levels | CCL3 level after ibrutinib treatment [3]: did not respond; also recorded: unaffected | CCL4 level after ibrutinib treatment [3]: did not respond; also recorded: unaffected | CCL3 level after ibrutinib treatment [4]: did not respond; also recorded: unaffected | CCL4 level after ibrutinib treatment [4]: did not respond; also recorded: unaffected | mean supernatant concentration of CCL3 ([5]; 1 μM ibrutinib alone (unstimulated cells), baseline 1705.5 pg/mL): 313.2 (±6.8) pg/mL | mean supernatant concentration of CCL3 ([5]; 1 μM ibrutinib in combination with 10 μg/mL anti-IgM): 2029.16 (±26.9) pg/mL | CCL3 level after ibrutinib treatment [5, 9]: abrogated; also recorded: significantly decreased | CCL4 level after ibrutinib treatment [5, 9]: abrogated; also recorded: significantly decreased | ibrutinib concentration resulting in the lowest CCL3 level [5, 10]: 500 nM | ibrutinib concentration resulting in the lowest CCL4 level [5, 10]: 500 nM | CCL3 level after ibrutinib treatment [6]: sensitive to inhibition; also recorded: significant decrease | CCL4 level after ibrutinib treatment [6]: sensitive to inhibition; also recorded: significant decrease | CCL3 level after ibrutinib treatment [7]: did not respond; also recorded: unaffected | CCL4 level after ibrutinib treatment [7]: did not respond; also recorded: unaffected | CCL3 level after ibrutinib treatment [8, 9]: abrogated; also recorded: significantly decreased | CCL4 level after ibrutinib treatment [8, 9]: abrogated; also recorded: significantly decreased | CCL3 level after BCR stimulation, ibrutinib titration ([8]; 1000 nM ibrutinib with 10 μg αIgM, decreased level maintained at 500 nM and 100 nM): decreased | CCL4 level after BCR stimulation, ibrutinib titration ([8]; 1000 nM ibrutinib with 10 μg αIgM, decreased level maintained at 500 nM, 100 nM and 50 nM): decreased
